Source: US7858635B2 (priority 2005, dated 2010)

Assays:
M4 muscarinic receptor = target: T1, M4 muscarinic receptor (Homo sapiens, UniProt P08173); experiment: Functional mobilization of intracellular calcium (FLIPR, Fluo-3), M4-CHO cells; assay type: cell-based; conditions: compound nos. 1-454; for Emax: read-out: M4 Efficacy
T1 construct: expressed in transfected cells; host or cells: CHO cells (M4-CHO, under puromycin, zeocin and blasticidin selection)
T1 sequence (P08173 1-479): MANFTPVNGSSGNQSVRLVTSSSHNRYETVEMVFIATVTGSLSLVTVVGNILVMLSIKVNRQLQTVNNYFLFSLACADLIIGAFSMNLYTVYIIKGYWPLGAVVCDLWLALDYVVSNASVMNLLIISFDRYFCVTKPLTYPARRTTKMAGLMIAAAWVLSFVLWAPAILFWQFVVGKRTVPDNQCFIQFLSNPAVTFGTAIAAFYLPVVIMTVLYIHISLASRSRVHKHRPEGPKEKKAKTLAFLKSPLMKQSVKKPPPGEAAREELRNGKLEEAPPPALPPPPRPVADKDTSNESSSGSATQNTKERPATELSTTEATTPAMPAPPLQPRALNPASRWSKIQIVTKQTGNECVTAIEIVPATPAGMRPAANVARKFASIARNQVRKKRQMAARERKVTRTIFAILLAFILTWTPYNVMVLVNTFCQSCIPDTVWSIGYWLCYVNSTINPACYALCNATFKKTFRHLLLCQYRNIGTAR
In short: (§1)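 Fluo-3 read-out, ex 488/em 540 nm, 60 sec on FLIPR 3. For agonist mode, compound added directly; for inhibition, 15 min compound pre-incubation before carbachol at EC80 (added as a 3× solution), or co-application. Buffer pH 7.4 with 1 mM probenecid; DMSO 0.5%.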

M1 muscarinic receptor = target: T2, M1 muscarinic receptor (Homo sapiens, UniProt P11229); experiment: Functional mobilization of intracellular calcium (FLIPR, Fluo-3), M1-CHO cells; assay type: cell-based; conditions: compound nos. 1-454; for Emax: read-out: M1 Efficacy
T2 construct: expressed in transfected cells; host or cells: CHO cells (M1-CHO, under zeocin and G418 selection)
T2 sequence (P11229 1-460): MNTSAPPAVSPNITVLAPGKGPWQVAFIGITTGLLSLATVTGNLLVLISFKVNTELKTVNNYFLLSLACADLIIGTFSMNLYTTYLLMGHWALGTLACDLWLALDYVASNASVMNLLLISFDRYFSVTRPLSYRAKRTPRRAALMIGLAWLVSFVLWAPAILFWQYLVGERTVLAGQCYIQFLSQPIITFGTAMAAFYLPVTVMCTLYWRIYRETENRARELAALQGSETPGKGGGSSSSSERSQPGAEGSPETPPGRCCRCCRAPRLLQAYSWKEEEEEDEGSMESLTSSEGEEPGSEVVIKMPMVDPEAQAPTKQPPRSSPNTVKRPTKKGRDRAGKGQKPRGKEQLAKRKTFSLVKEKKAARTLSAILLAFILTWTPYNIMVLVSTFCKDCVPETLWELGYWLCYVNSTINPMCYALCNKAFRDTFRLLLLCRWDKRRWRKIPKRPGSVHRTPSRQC
In short: as §1

[1] = 100% efficacy is the maximum response obtained with the Carbachol control
[2] = M4-CHO cells, calcium mobilization
[3] = M1-CHO cells, calcium mobilization

CCON=C1CCC(N2CCC3(CC2)CN(C(C)=O)c2ccc(F)cc23)CC1 (stereo not shown) [compound 86, 1-(1′-(4-(ethoxyimino)cyclohexyl)-5-fluorospiro[indoline-3,4′-piperidine]-1-yl)ethanone]
Emax (M4 muscarinic receptor; [1]): < 55% | M4 Activity (M4 muscarinic receptor; [2]): + (activity was measured to be greater than or equal to 4.0 μM) | Emax (M1 muscarinic receptor; [1]): 65 to 85% | M1 Activity (M1 muscarinic receptor; [3]): +++ (activity was measured to be less than or equal to 0.7 μM)

CC(=O)N[C@H]1CC2(CCN([C@@H]3C[C@@H]4CC[C@@H]3C4)CC2)c2ccccc21 [compound 158]
Emax (M4 muscarinic receptor; [1]): > 70% | M4 Activity (M4 muscarinic receptor; [2]): + (activity was measured to be greater than or equal to 4.0 μM) | Emax (M1 muscarinic receptor; [1]): > 85% | M1 Activity (M1 muscarinic receptor; [3]): +++ (activity was measured to be less than or equal to 0.7 μM)

O=C1Nc2ccccc2C12CCN(CC1CC3C=CC1C3)CC2 (stereo not shown) [compound 7]
Emax (M4 muscarinic receptor; [1]): > 70% | M4 Activity (M4 muscarinic receptor; [2]): ++ (activity was measured to be between 0.1 μM and 4.0 μM) | Emax (M1 muscarinic receptor; [1]): 65 to 85% | M1 Activity (M1 muscarinic receptor; [3]): +++ (activity was measured to be less than or equal to 0.7 μM)

CN(C)C(=O)N1CC2(CCN(CC3CCN(c4nccs4)C3)CC2)c2cc(F)ccc21 (stereo not shown) [compound 451]
M4 Activity (M4 muscarinic receptor): +++ (activity was measured to be less than or equal to 0.1 μM) | M1 Activity (M1 muscarinic receptor): ++ (activity was measured to be between 0.7 μM and 3.0 μM)

CC(C)(C)COC(=O)N1C2CCC1CC(N1CCC3(CC1)COc1ccc(F)cc13)C2 (stereo not shown) [compound 247]
Emax (M4 muscarinic receptor; [1]): > 70% | M4 Activity (M4 muscarinic receptor; [2]): + (activity was measured to be greater than or equal to 4.0 μM) | Emax (M1 muscarinic receptor; [1]): 65 to 85% | M1 Activity (M1 muscarinic receptor; [3]): ++ (activity was measured to be between 0.7 μM and 3.0 μM)

CCOC(=O)N1CCC(C)(CN2CCC3(CC2)C[C@H](NC(C)=O)c2ccccc23)CC1 [compound 315]
Emax (M4 muscarinic receptor; [1]): < 55% | M4 Activity (M4 muscarinic receptor; [2]): + (activity was measured to be greater than or equal to 4.0 μM) | Emax (M1 muscarinic receptor; [1]): < 65% | M1 Activity (M1 muscarinic receptor; [3]): + (activity was measured to be greater than or equal to 3.0 μM)

O=C(OCC(F)(F)F)N1C2CCC1CC(N1CCC3(CC1)COc1ccc(F)cc13)C2 (stereo not shown) [compound 124]
Emax (M4 muscarinic receptor; [1]): < 55% | M4 Activity (M4 muscarinic receptor; [2]): ++ (activity was measured to be between 0.1 μM and 4.0 μM) | Emax (M1 muscarinic receptor; [1]): < 65% | M1 Activity (M1 muscarinic receptor; [3]): +++ (activity was measured to be less than or equal to 0.7 μM)

CCOC(=O)N1C2CCC1CC(N1CCC3(CC1)CC(=O)Nc1ccccc13)C2 (stereo not shown) [compound 56]
Emax (M4 muscarinic receptor; [1]): 55 to 70% | M4 Activity (M4 muscarinic receptor; [2]): +++ (activity was measured to be less than or equal to 0.1 μM) | Emax (M1 muscarinic receptor; [1]): 65 to 85% | M1 Activity (M1 muscarinic receptor; [3]): +++ (activity was measured to be less than or equal to 0.7 μM)

CCOC(=O)N1C2CCC1CC(N1CCC3(CC1)CC(NC(C)=O)c1ccccc13)C2 (stereo not shown) [compound 318]
Emax (M4 muscarinic receptor; [1]): > 70% | M4 Activity (M4 muscarinic receptor; [2]): +++ (activity was measured to be less than or equal to 0.1 μM) | Emax (M1 muscarinic receptor; [1]): 65 to 85% | M1 Activity (M1 muscarinic receptor; [3]): +++ (activity was measured to be less than or equal to 0.7 μM)

CCOC(=O)N1CCC(N2CCC3(CC2)CN(C(=O)O[C@H]2CCOC2)c2ccc(F)cc23)CC1 [compound 49]
M4 Efficacy (M4 muscarinic receptor; [1]): ++ (efficacy was calculated to be between 70% and 55%) | M4 Activity (M4 muscarinic receptor; [2]): +++ (activity was measured to be less than or equal to 0.1 μM) | M1 Efficacy (M1 muscarinic receptor; [1]): +++ (efficacy was calculated to be 85% or more) | M1 Activity (M1 muscarinic receptor; [3]): +++ (activity was measured to be less than or equal to 0.7 μM)

CCOC(=O)N1C2CCC1CC(N1CCC3(CC1)CN(C(C)=O)c1ccccc13)C2 (stereo not shown) [compound 205]
Emax (M4 muscarinic receptor; [1]): < 55% | M4 Activity (M4 muscarinic receptor; [2]): + (activity was measured to be greater than or equal to 4.0 μM) | Emax (M1 muscarinic receptor; [1]): < 65% | M1 Activity (M1 muscarinic receptor; [3]): + (activity was measured to be greater than or equal to 3.0 μM)

CC(=O)N1CC2(CCN(C3CCC(C(F)(F)F)CC3)CC2)c2cc(F)ccc21 (stereo not shown) [compound 236]
Emax (M4 muscarinic receptor; [1]): 55 to 70% | M4 Activity (M4 muscarinic receptor; [2]): ++ (activity was measured to be between 0.1 μM and 4.0 μM) | Emax (M1 muscarinic receptor; [1]): 65 to 85% | M1 Activity (M1 muscarinic receptor; [3]): +++ (activity was measured to be less than or equal to 0.7 μM)
